Source: article PMC8803441, “Identification of 20(S)-Ginsenoside Rh2 as a Potential EGFR Tyrosine Kinase Inhibitor” (Oxidative Medicine and Cellular Longevity, 2022)

Molecular target: T1, Epidermal growth factor receptor (EGFR) kinase (Homo sapiens, UniProt P00533)
T1 construct: EGFR protein (GST-tagged)
Experiment: HTRF KinEASE-TK kinase assay with GST-tagged EGFR
Assay type: biochemical

T1 sequence (P00533 25-1210): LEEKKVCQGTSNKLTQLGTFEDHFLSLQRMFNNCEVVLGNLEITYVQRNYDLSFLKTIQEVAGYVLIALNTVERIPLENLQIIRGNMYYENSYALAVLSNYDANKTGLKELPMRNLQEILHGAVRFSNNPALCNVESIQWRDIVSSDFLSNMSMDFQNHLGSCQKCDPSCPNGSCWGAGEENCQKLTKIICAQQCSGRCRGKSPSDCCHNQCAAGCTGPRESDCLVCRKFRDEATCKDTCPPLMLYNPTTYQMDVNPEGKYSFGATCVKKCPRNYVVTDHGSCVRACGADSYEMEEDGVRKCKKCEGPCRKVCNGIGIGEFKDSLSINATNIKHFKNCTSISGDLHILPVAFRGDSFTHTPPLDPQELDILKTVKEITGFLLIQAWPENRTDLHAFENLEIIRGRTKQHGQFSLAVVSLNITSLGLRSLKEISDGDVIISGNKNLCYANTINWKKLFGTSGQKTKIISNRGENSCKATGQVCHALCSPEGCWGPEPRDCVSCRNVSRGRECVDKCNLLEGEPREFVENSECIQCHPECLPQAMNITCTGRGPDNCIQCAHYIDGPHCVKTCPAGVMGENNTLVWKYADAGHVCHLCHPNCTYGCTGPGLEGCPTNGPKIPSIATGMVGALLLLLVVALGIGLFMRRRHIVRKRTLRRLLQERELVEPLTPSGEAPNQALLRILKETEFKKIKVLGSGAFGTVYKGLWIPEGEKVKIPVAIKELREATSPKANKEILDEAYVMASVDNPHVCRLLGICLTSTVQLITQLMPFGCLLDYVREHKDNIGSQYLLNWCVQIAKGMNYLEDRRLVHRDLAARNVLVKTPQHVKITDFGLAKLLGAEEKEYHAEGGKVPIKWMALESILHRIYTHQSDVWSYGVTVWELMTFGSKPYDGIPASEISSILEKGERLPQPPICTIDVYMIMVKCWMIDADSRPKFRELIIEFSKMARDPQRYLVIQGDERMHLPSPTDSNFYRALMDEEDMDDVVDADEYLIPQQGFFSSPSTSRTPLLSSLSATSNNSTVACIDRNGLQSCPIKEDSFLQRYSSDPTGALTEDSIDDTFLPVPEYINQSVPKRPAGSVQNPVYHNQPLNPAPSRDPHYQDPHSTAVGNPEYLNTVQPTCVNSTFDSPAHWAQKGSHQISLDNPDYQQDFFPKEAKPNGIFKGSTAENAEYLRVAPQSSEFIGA

CC(C)=CCC[C@](C)(O)[C@H]1CC[C@]2(C)[C@@H]1[C@H](O)C[C@@H]1[C@@]3(C)CC[C@H](O[C@@H]4O[C@H](CO)[C@@H](O)[C@H](O)[C@H]4O)C(C)(C)[C@@H]3CC[C@]12C [20(S)-ginsenoside Rh2]
IC50: 2.78 ± 0.16 µM
